{"source": "patent US20060262149A1", "about": "“Ink jet ink and recording material” (priority 2005, published 2006)", "key": {"[1]": {"assay": "Light fastness of magenta ink jet prints on stabilizer-treated Konica QP paper, 100% print density (Example 5)", "details": "HP DeskJet 970 Cxi, stabilizer 650-700 mg/m^2 on Konica QP paper, office fluorescent lighting, None = 25.73", "description": "(§1) A resin-coated paper impregnated with inorganic adsorbent particles (Konica QP Photoglossy ink jet paper, Konica Corp.) is purchased. On the ink-receiving layer, a 0.8 wt % methanol solution of the instant compounds is applied in an amount to achieve 650-700 mg/m^2. The paper is allowed to dry under ambient temperature and pressure for 24 hours.\nSeparately, test patterns (magenta) are printed on the treated sheets using a Hewlett Packard DeskJet 970 Cxi printer at 100% print density. The obtained prints are left to dry at ambient temperature and pressure for 24 hours.\n(§2) Color densities and CIEL*a*b coordinates before and after exposure are measured using X-Rite 938 Spectrodensitometer. Exposures are carried out using normal office fluorescent lighting. The change in color is given by Delta E (DE) which is calculated by: DE=[(DL*)^2+(Da*)^2+(Db*)^2]^1/2"}, "[2]": {"assay": "Light fastness of cyan, magenta and yellow ink jet prints on stabilizer-treated Konica QP paper, 50% print density (Example 6)", "details": "HP DeskJet 970 Cxi, stabilizer 650-700 mg/m^2, office fluorescent lighting; for DE for magenta after 4 weeks: None = 20.16; for DE for yellow after 4 weeks: None = 4.68", "description": "as §2\nas §1, with “hours. Separately, test patterns (cyan, magenta and yellow) are printed on the treated sheets using a Hewlett Packard DeskJet 970 Cxi printer at 50% print density. The obtained prints are left to dry at ambient temperature and pressure for 24 hours.” for “hours.”\nColor densities and CIEL*a*b coordinates before and after exposure are measured using X-Rite 938 Spectrodensitometer. Exposures are carried out using normal office fluorescent lighting."}}}
{"smiles": "CC(C)(O)CON1C(C)(C)CC(O)CC1(C)C", "note": "[Instant Example 2]", "values": [{"measurement": "DE for magenta after 4 weeks", "setting": "[1]", "value": 20.89}, {"measurement": "DE for cyan after 4 weeks", "setting": "[2]; cyan, None = 7.29", "value": 6.64}, {"measurement": "DE for magenta after 4 weeks", "setting": "[2]", "value": 16.71}, {"measurement": "DE for yellow after 4 weeks", "setting": "[2]", "value": 2.48}]}
{"smiles": "CC(C)(O)CON1C(C)(C)CC(O)CC1(C)C", "note": "[Instant Example 1]", "values": [{"measurement": "DE for magenta after 4 weeks", "setting": "[1]", "value": 18.39}, {"measurement": "DE for magenta after 4 weeks", "setting": "[2]", "value": 17.82}, {"measurement": "DE for yellow after 4 weeks", "setting": "[2]", "value": 1.81}]}
